The results in this text go back to ChEMBL document CHEMBL1201862, “PubChem BioAssay data set” (2004).

Test systems include CAKI-1; HCC 2998; HCT-116; K562; KM12; M14; MCF7; NCI-H226; NCI-H522; OVCAR-3; OVCAR-8; PC-3; RXF 393; SF-295; SK-MEL-2; SNB-19; SR; U-251; UO-31.
Common to all, as to assay: NCI tumour cell line growth inhibition, 48 h

SMILES strings stand for the structures.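 Method: 48-hour compound exposure of cells in 96-well plates, five concentrations, linear interpolation of endpoints. GI50: concentration for 50% inhibition of growth.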 Activity calls are given as the source filed them. No stated cut-off is given here; in the data, active = GI50 up to about 1.1 µM and inactive = higher.

On to `COc1cc2c(cc1O)CC1c3c(cc(O)c(OC)c3-2)CCN1C` (stereo not given), for which the GI50 with CAKI-1 was > 100 µM (inactive); in the experiment with HCC 2998, > 100 µM (inactive); in the experiment on HCT-116, > 78 µM (inactive); in the experiment on K562, > 100 µM (inactive); in the experiment with KM12, > 100 µM (inactive); with M14, > 100 µM (inactive). Further, the GI50 with MCF7 is > 100 µM (inactive); with NCI-H226, 69.7 µM (inactive); in the experiment with NCI-H522 it was 56.4 µM (inactive); with OVCAR-3, 98.9 µM (inactive); in the experiment with OVCAR-8, > 100 µM (inactive); with PC-3 it was > 96.6 µM (inactive). Besides, the GI50 in the experiment with RXF 393 is > 100 µM (inactive); in the experiment on SF-295, > 100 µM (inactive); in the experiment with SK-MEL-2 it was > 100 µM (inactive); in the experiment with SNB-19, > 100 µM (inactive); in the experiment on SR, > 59.7 µM (inactive); in the experiment on U-251, > 86.1 µM (inactive). The GI50 in the experiment with UO-31 was > 100 µM (inactive).
In the case of `CN(C)Cc1cc(Cl)c(O)c(CN(C)C)c1`, the GI50 in the experiment on CAKI-1, with HCC 2998, with HCT-116, in the experiment with K562, with KM12 and in the experiment on M14 was > 100 µM (inactive) each time. In addition, the GI50 in the experiment with MCF7, with NCI-H226, in the experiment on NCI-H522, in the experiment on OVCAR-3, in the experiment with OVCAR-8 and in the experiment with PC-3 was > 100 µM (inactive) in each case. The GI50 in the experiment with RXF 393, in the experiment with SF-295, in the experiment on SK-MEL-2, in the experiment on SNB-19, in the experiment with SR and in the experiment on U-251 was > 100 µM (inactive) throughout. In addition, the GI50 in the experiment with UO-31 was > 100 µM (inactive).
With `Fc1ccc(NC(=S)SCc2ccc3c(c2)OCO3)cc1F`, the GI50 with CAKI-1 was 27.7 µM (inactive); in the experiment on HCC 2998, 21.8 µM (inactive); with HCT-116, 49.3 µM (inactive); in the experiment on K562, 19.1 µM (inactive); in the experiment on KM12 it was 25.5 µM (inactive); with M14, 20.4 µM (inactive). For the same compound, the GI50 in the experiment with MCF7 was 18.7 µM (inactive); in the experiment with NCI-H226, 37.7 µM (inactive); in the experiment with NCI-H522, 16.8 µM (inactive); in the experiment with OVCAR-3, 29.2 µM (inactive); in the experiment on OVCAR-8, 18.3 µM (inactive); with PC-3, 25.5 µM (inactive). For the same compound, the GI50 in the experiment with RXF 393 is 15.5 µM (inactive); in the experiment with SF-295, 18.4 µM (inactive); in the experiment on SK-MEL-2, 18.3 µM (inactive); with SNB-19, 16.6 µM (inactive); in the experiment with SR it was 17.4 µM (inactive); with U-251, 17.4 µM (inactive). For the same compound, the GI50 with UO-31 was 17 µM (inactive).
For `CCCCC[C@H]1CC=CC(=O)O1`, the GI50 is 2.55 µM (inactive) with CAKI-1; 4.25 µM (inactive) with HCC 2998; 3.16 µM (inactive) in the experiment on HCT-116; 5.48 µM (inactive) with K562; 3.18 µM (inactive) in the experiment with KM12; 11.5 µM (inactive) in the experiment with M14. Also, the GI50 in the experiment on MCF7 was 4.89 µM (inactive); with NCI-H226 it was 4.13 µM (inactive); in the experiment with NCI-H522, 2.78 µM (inactive); in the experiment on OVCAR-3, 3.5 µM (inactive); in the experiment with OVCAR-8 it was 8.28 µM (inactive); with PC-3, 7.93 µM (inactive). Moreover, the GI50 with RXF 393 is 2.33 µM (inactive); in the experiment on SF-295, 10.4 µM (inactive); in the experiment on SK-MEL-2, 5.43 µM (inactive); in the experiment on SNB-19, 10.1 µM (inactive); with SR, 2.03 µM (inactive); with U-251 it was 8.3 µM (inactive). Further, the GI50 in the experiment on UO-31 was 11 µM (inactive).
Turning to `CC[C@H]1C=CCC[C@@]2(C[C@@H]3CC[C@@H]4[C@H](C(=O)OCCCCCCCCCCCCCCCC(=O)N(CCCN)CCCCN)[C@]5(CCC[C@@H](C)O5)NC(=[N+]34)N2)O1`, the GI50 with CAKI-1 is 0.0908 µM (active); in the experiment on HCC 2998, 0.0641 µM (active); in the experiment with HCT-116, 0.0275 µM (active); in the experiment with K562 it was 0.0299 µM (active); in the experiment with KM12, 0.0459 µM (active); in the experiment with M14, < 0.01 µM (active). The GI50 in the experiment on MCF7 is 0.0684 µM (active); with NCI-H226, 0.314 µM (active); in the experiment on NCI-H522 it was 0.0425 µM (active); in the experiment with OVCAR-3, 0.0738 µM (active); in the experiment with OVCAR-8, 0.155 µM (active); with PC-3, 0.0428 µM (active). The GI50 in the experiment on RXF 393 was 0.071 µM (active); with SF-295, 0.024 µM (active); in the experiment on SK-MEL-2 it was 0.0259 µM (active); in the experiment with SNB-19 it was 0.381 µM (active); in the experiment with SR, 0.0281 µM (active); in the experiment with U-251, 0.0561 µM (active). For the same compound, in the experiment on UO-31, the GI50 is 0.0519 µM (active).
For `CN1CCN(c2cc3[nH]c(-c4ccc(Cl)cc4)nc3cc2F)CC1`, the GI50 in the experiment with CAKI-1 is 19.5 µM (inactive); in the experiment with HCC 2998, 4.71 µM (inactive); in the experiment with HCT-116, 13.8 µM (inactive); in the experiment with K562 it was 3.78 µM (inactive); in the experiment with KM12, 10.8 µM (inactive); in the experiment on M14, 2.84 µM (inactive). The GI50 in the experiment with MCF7 was 7.82 µM (inactive); in the experiment with NCI-H226, 6.81 µM (inactive); in the experiment on NCI-H522, 15.6 µM (inactive); in the experiment on OVCAR-3, 11.8 µM (inactive); in the experiment on OVCAR-8, 26.9 µM (inactive); in the experiment on PC-3, 16.8 µM (inactive). Moreover, the GI50 in the experiment with RXF 393 is 13.8 µM (inactive); in the experiment on SF-295 it was 15.2 µM (inactive); in the experiment on SK-MEL-2, 16.8 µM (inactive); in the experiment with SNB-19, 21.3 µM (inactive); in the experiment with SR it was 24.1 µM (inactive); in the experiment on U-251, 21.4 µM (inactive). For the same compound, the GI50 with UO-31 was 7.1 µM (inactive).
With `CCN1CCC(O)(/C=C/c2ccc(C)cc2C)C(C(=O)/C=C/c2ccc(C)cc2C)C1` (stereo not given), the GI50 in the experiment with CAKI-1 was 5.09 µM (inactive); with HCC 2998, 1.69 µM (inactive); in the experiment with HCT-116 it was 2.22 µM (inactive); in the experiment with K562, 3.13 µM (inactive); with KM12 it was 2.33 µM (inactive); in the experiment with M14, 3.55 µM (inactive). Moreover, the GI50 in the experiment with MCF7 was 2.69 µM (inactive); in the experiment with NCI-H226, 2.77 µM (inactive); with NCI-H522, 1.84 µM (inactive); in the experiment on OVCAR-3, 2.53 µM (inactive); in the experiment with OVCAR-8 it was 2.09 µM (inactive); with PC-3, 2.5 µM (inactive). The GI50 with RXF 393 was 3.21 µM (inactive); in the experiment with SF-295, 2.08 µM (inactive); in the experiment with SK-MEL-2, 4.26 µM (inactive); in the experiment with SNB-19, 4.03 µM (inactive); in the experiment with SR, 2.37 µM (inactive); with U-251, 3.39 µM (inactive). Moreover, the GI50 with UO-31 is 2.35 µM (inactive).
As for `O=c1[nH]nc(-c2ccc([N+](=O)[O-])cc2)n1/N=C/c1ccc([N+](=O)[O-])cc1`, the GI50 in the experiment on CAKI-1 is > 100 µM (inactive); in the experiment with HCC 2998 it was > 100 µM (inactive); in the experiment on HCT-116, > 100 µM (inactive); in the experiment with K562, 43.7 µM (inactive); in the experiment with KM12, 55.3 µM (inactive); with M14, > 100 µM (inactive). Moreover, the GI50 in the experiment with MCF7 was 47.9 µM (inactive); in the experiment with NCI-H226, > 100 µM (inactive); in the experiment with NCI-H522, 73.3 µM (inactive); with OVCAR-3, > 100 µM (inactive); in the experiment on OVCAR-8, > 100 µM (inactive); in the experiment with PC-3, 57.9 µM (inactive). For the same compound, the GI50 was 56.9 µM (inactive) in the experiment with RXF 393; > 100 µM (inactive) in the experiment on SF-295; > 100 µM (inactive) with SK-MEL-2; > 100 µM (inactive) with SNB-19; 52 µM (inactive) in the experiment with SR; 71.4 µM (inactive) in the experiment on U-251. Also, the GI50 in the experiment on UO-31 is > 100 µM (inactive).
On to `CN(C)CCO/N=C1/C=C2CC[C@H]3[C@@H]4CC[C@H](O)[C@@]4(C)CC[C@@H]3[C@@]2(C)CC1`, for which the GI50 in the experiment on CAKI-1 is 31.9 µM (inactive); in the experiment with HCC 2998, 9.82 µM (inactive); with HCT-116, 10.5 µM (inactive); in the experiment with K562 it was 6.22 µM (inactive); in the experiment on KM12 it was 10.8 µM (inactive); with M14, 8.26 µM (inactive). For the same compound, the GI50 with MCF7 is 22.8 µM (inactive); in the experiment on NCI-H226 it was 1.23 µM (inactive); with NCI-H522, 1.67 µM (inactive); in the experiment with OVCAR-3 it was 16.6 µM (inactive); in the experiment on OVCAR-8, 13.9 µM (inactive); in the experiment with PC-3, 18.2 µM (inactive). Further, the GI50 in the experiment on RXF 393 was 9.59 µM (inactive); in the experiment on SF-295, 13.9 µM (inactive); with SK-MEL-2, 13.9 µM (inactive); in the experiment on SNB-19 it was 27.4 µM (inactive); with SR, 5.55 µM (inactive); in the experiment on U-251, 10.1 µM (inactive). In addition, the GI50 in the experiment on UO-31 is 12.3 µM (inactive).
With `CC(C)(O)C1CC[C@]2(C)CC[C@]3(C)[C@H](CC[C@@H]4[C@@]5(C)CC[C@H](O)C(C)(C)[C@@H]5CC[C@]43C)[C@@H]12` (stereo not given in full), the GI50 with CAKI-1 was 22.1 µM (inactive); with HCC 2998, 26.8 µM (inactive); with HCT-116, 21 µM (inactive); in the experiment on K562 it was 82.6 µM (inactive); with KM12, 34.4 µM (inactive); with M14, 36.3 µM (inactive). In addition, the GI50 in the experiment with MCF7 is 34.6 µM (inactive); in the experiment with NCI-H226, 44.4 µM (inactive); in the experiment with NCI-H522, 29.1 µM (inactive); with OVCAR-3, 24.1 µM (inactive); in the experiment on OVCAR-8, 32.7 µM (inactive); in the experiment with PC-3, 30.3 µM (inactive). Also, the GI50 in the experiment with RXF 393 is 33.6 µM (inactive); in the experiment with SF-295, 25.4 µM (inactive); in the experiment with SK-MEL-2, 20.5 µM (inactive); in the experiment with SNB-19, 68.7 µM (inactive); in the experiment on SR it was 30.5 µM (inactive); in the experiment on U-251, 35.6 µM (inactive). The GI50 with UO-31 is 58.2 µM (inactive).
